Source: paper PMC7880572 (ACS Chemical Neuroscience, 2021)
Like-named read-outs stand apart in the source and are kept apart here.

How the values were obtained:
Aβ40 = biological target: T1, Aβ40 (Homo sapiens, UniProt P05067); experiment: Inhibition of self-induced Aβ40 aggregation (ThT fluorescence, HFIP); assay type: biochemical; conditions: Aβ40 30 μM, mean ± SEM, n = 3; for IC50: 2 h at 25 °C, PBS 2% HFIP, read-out: Aβ40 aggr IC50; for inhibition at 100 µM: read-out: Aβ40 aggr % inhibition
T1 construct: samples of Aβ40 (30 μM) were coincubated for 2 h at 25 °C with test molecules; purchased EzBiolab, Carmel, IN, USA
Method: In vitro inhibition of Aβ40 aggregation was assessed following a previously reported thioflavin T (ThT) fluorescence-based method involving the use of hexafluoroisopropanol (HFIP) as aggregation enhancer. […].
In vitro inhibition assay of Aβ40 aggregation has been previously reported[41] and adapted to a 96-well plate platform.
(§1) After incubation in 96-well black, nonbinding microplates (Greiner Bio-One GmbH, Frickenhausen, Germany), thioflavin T (25 μM) was added and fluorimetric reads (ex 440, em 485 nm) were performed in a multiplate reader Infinite M1000 Pro (Tecan, Cernusco sul Naviglio, Italy). Experiments were run in triplicate. Results were expressed by statistical analysis while IC50 values were obtained by nonlinear regression using Prism software (GraphPad Prism version 5.00 for Windows, GraphPad Software, San Diego, CA, USA).

[1] = biological target: T2, eeAChE (AChE from electric eel) (Electrophorus electricus, UniProt O42275); experiment: biochemical; conditions: mean ± SEM, n = 3
T2 construct: purchased Sigma-Aldrich, Milan, Italy

[2] = biological target: T3, esBChE (BChE from equine serum) (Equus caballus, UniProt P81908); experiment: biochemical; conditions: mean ± SEM, n = 3
T3 construct: BChE from horse serum (13 U/mL); purchased Sigma-Aldrich, Milan, Italy; host or cells: horse serum

hMAO A = biological target: T4, hMAO A (Homo sapiens, UniProt P21397); experiment: MAO A inhibition (fluorimetric kynuramine assay); assay type: biochemical; conditions: mean ± SEM, n = 3
T4 construct: purchased Sigma-Aldrich
T4 sequence (P21397 1-527): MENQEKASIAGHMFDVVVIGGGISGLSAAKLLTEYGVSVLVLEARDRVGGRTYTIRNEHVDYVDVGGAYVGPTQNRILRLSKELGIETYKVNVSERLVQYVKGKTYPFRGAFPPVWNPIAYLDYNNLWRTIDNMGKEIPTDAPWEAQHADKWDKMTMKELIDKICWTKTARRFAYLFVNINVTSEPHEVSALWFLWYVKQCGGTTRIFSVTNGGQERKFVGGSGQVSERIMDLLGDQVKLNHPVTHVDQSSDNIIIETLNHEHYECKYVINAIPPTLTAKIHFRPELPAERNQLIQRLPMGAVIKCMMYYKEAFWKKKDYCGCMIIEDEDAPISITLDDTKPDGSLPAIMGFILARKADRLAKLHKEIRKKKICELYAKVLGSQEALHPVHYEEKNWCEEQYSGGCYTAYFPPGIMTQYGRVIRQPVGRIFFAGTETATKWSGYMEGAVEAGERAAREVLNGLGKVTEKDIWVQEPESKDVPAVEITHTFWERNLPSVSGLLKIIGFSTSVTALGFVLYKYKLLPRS

MAO B [3] = biological target: T5, MAO B (Homo sapiens, UniProt P27338); experiment: MAO B inhibition (fluorimetric kynuramine assay, inhibition kinetics); assay type: biochemical; conditions: mean ± SEM, n = 3
T5 construct: purchased Sigma-Aldrich
T5 sequence (P27338 1-520): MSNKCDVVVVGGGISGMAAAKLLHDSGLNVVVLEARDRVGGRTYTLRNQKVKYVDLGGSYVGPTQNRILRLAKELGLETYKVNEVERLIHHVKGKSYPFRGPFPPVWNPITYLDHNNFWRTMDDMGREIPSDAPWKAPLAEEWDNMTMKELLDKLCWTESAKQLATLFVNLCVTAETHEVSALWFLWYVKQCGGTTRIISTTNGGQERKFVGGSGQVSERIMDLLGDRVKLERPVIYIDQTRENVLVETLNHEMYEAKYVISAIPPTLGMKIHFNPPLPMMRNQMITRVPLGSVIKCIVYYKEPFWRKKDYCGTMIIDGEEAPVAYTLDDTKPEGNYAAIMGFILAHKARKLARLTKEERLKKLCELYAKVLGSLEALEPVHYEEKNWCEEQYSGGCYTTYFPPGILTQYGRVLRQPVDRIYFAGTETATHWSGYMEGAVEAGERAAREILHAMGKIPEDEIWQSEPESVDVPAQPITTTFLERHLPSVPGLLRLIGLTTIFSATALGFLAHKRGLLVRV

in vitro = conditions: PAMPA, pH 7.4
Aβ42 = biological target: T6, Aβ42 (Homo sapiens, UniProt P05067); experiment: Inhibition of Aβ42 fibrillation by ThT fluorescence assay; assay type: biochemical; conditions: 100 and 5 μM, Aβ42 30 μM, 37 °C, 48 h
T6 construct: purchased EzBiolab, Carmel, IN, USA
Method: Its high propensity to self-aggregate allows a fast execution of aggregation assays without the need of aggregation enhancers as for Aβ40.
Quercetin (QUR) was used as reference compound.
as §1

AChE = tested on: AChE; parameters: method as in PMID 25924599; conditions: first series; cited from earlier work
BChE = tested on: BChE; parameters: method as in PMID 25924599; conditions: first series; cited from earlier work
cerebellar granule cells = experiment: In vitro cytotoxicity (MTT); assay type: cell-based; conditions: CGCs, compound 10 μM, 48 h, mean ± SEM
Method: . […] For a more meaningful assessment of the value of the present compounds, the issue of their toxicity, in comparison to established drugs for AD, should deserve further investigation.
Cerebellar granule cells were prepared from 8-day-old Sprague Dawley rats as described previously.[66] Cells were studied from the 6th to the 12th day in vitro. The experimental procedures and care of the animals were performed in compliance with the Directive of the EU Parliament and Council of September 22, 2010 (2010/63/EU) and were approved by the Italian Ministry of Health (COD. 75F11.N.6DX) in accordance with D.M. 116/1992. All efforts were made in order to minimize animal suffering and the number of animals necessary to obtain reliable results.
[…]. Cells were maintained in 5% CO2 at 37 °C. The cell viability was assessed by the MTT assay 48 h after the treatment. […]. The survival rates of viable cells were calculated by comparing the optical absorbance of treated samples with that of the untreated controls. All experiments were repeated at least three times independently, and data are expressed as the mean ± SEM.

MAO B [4] = biological target: T5, MAO B; experiment: MAO B kynuramine assay in spectrophotometric mode (4-hydroxyquinoline absorbance at 316 nm), incl. time course; assay type: biochemical; conditions: 100 nM inhibitor
[5] = based on the PAMPA-BBB classification range from Di et al.

T3 sequence (P81908 whole entry): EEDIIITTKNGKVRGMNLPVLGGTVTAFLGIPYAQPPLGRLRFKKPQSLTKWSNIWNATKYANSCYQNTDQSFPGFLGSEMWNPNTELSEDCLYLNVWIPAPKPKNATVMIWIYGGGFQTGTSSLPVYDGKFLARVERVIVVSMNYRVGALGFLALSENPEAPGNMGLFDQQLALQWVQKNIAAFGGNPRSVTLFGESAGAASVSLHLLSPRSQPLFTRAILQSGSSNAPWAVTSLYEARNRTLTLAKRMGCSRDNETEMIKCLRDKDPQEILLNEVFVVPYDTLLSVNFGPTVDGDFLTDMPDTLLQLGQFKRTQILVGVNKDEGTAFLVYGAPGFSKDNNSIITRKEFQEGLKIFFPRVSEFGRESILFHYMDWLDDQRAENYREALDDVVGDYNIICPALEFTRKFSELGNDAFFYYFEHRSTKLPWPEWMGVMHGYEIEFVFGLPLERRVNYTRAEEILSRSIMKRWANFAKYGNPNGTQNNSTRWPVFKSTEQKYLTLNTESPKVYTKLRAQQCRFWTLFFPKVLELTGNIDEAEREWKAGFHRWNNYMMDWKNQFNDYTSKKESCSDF
T2 sequence (O42275 24-633): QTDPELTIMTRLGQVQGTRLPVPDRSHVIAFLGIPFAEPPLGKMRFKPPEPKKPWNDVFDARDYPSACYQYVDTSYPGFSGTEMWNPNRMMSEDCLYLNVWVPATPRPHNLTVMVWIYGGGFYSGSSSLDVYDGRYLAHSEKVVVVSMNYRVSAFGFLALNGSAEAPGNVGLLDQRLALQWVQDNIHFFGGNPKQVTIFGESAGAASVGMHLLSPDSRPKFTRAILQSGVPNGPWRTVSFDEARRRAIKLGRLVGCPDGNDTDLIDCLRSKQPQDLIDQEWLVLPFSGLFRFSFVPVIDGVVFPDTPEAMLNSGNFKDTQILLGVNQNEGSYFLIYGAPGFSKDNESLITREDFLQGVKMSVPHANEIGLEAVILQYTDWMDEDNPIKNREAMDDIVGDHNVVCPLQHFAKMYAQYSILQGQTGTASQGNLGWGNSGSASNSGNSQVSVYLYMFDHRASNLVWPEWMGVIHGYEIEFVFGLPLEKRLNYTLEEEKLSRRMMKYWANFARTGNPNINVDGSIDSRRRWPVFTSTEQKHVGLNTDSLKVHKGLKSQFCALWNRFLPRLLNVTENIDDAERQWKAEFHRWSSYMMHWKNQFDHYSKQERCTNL
T1 sequence (P05067 672-711 limits assumed): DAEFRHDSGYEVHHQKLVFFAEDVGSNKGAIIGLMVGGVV
T6 sequence (P05067 672-713 limits assumed): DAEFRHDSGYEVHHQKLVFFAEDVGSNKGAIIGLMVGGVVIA

O=C1C(Cl)=C(NC(Cc2ccccc2)C(=O)O)C(=O)c2ccccc21 (centres unmarked) [Compound 8]
IC50 (Aβ40): 17 ± 2 µM
IC50 [1]: 13 ± 2 µM
inhibition at 10 µM [2]: 14%
inhibition at 10 µM (hMAO A): 26%
IC50 (MAO B [3]): 2.7 ± 0.8 µM
CNS prediction [5]: CNS+
Papp at 16 h (in vitro): 61 ± 4 nm/s

O=C1c2ccccc2C(=O)c2c(NCCn3nnc4ccccc43)cccc21 [Compound 14, 1-{[2-(1H-Benzotriazol-1-yl)ethyl]amino}-9,10-anthraquinone]
IC50 (Aβ40): 11 ± 2 µM
IC50 [1]: 8.1 ± 0.5 µM
IC50 [2]: 3.4 ± 0.2 µM
inhibition at 10 µM (hMAO A): 53%
IC50 (MAO B [3]): 0.98 ± 0.14 µM
inhibition of Aβ42 aggregation (activity profile) (Aβ42): best activity profile

NCCc1ccc(O)c(O)c1 [Dopamine]
Papp at 16 h (in vitro): 6 nm/s

O=C1c2ccccc2C(=O)c2c(SC[C@@H]3CCCN4CCCC[C@H]34)cccc21 [XIV]
IC50 (AChE): 3.8 µM
IC50 (BChE): 3.4 µM

O=C1c2ccccc2C(=O)c2c(NCCc3c[nH]c4ccccc34)cccc21 [Compound 13, 1-{[2-(1H-Indol-3-yl)ethyl]amino}-9,10-anthraquinone]
inhibition at 100 µM (Aβ40): ~60%
IC50 [1]: 1.85 ± 0.04 µM
inhibition at 10 µM [2]: 17%
inhibition at 10 µM (hMAO A): 25%
inhibition at 10 µM (MAO B [3]): 42%

CN(C)CCCN1c2ccccc2Sc2ccc(Cl)cc21 [Chlorpromazine]
Papp at 16 h (in vitro): 72 nm/s

O=C1c2ccccc2C(=O)c2c(NCCCSC[C@@H]3CCCN4CCCC[C@H]34)cccc21 [XII]
IC50 (BChE): 1.1 µM

O=C1C(Cl)=C(NCCc2c[nH]c3ccccc23)C(=O)c2ccccc21 [Compound 5]
IC50 (Aβ40): 6.6 ± 0.1 µM
IC50 [1]: 8.7 ± 0.8 µM
inhibition at 10 µM [2]: 29%
IC50 (hMAO A): 5 ± 0.2 µM
IC50 (MAO B [3]): 0.11 ± 0.01 µM
cell viability vs control (%) (cerebellar granule cells): 85 ± 14%
CNS prediction [5]: CNS+
Papp at 16 h (in vitro): 143 ± 13 nm/s

CN1C(C(=O)Nc2ccccn2)=C(O)c2ccccc2S1(=O)=O [Piroxicam]
Papp (in vitro): 16 nm/s

O=C1C(Cl)=C(NCCn2cnc3ccccc32)C(=O)c2ccccc21 [Compound 6, 2-[2-(1H-Benzimidazol-1-yl)ethylamino]-3-chloro-1,4-naphthoquinone]
IC50 (Aβ40): 19 ± 4 µM
IC50 [1]: 6.8 ± 0.7 µM
inhibition at 10 µM [2]: 24%
inhibition at 10 µM (hMAO A): 23%
inhibition at 10 µM (MAO B [3]): 24%

O=C1C(Cl)=C(NCCCc2ccccc2)C(=O)c2ccccc21 [Compound 4, 2-Chloro-3-(phenylpropylamino)-1,4-naphthoquinone]
IC50 (Aβ40): 8.2 ± 0.3 µM
IC50 [1]: 3.5 ± 0.3 µM
inhibition at 10 µM [2]: 35%
IC50 (hMAO A): 3 ± 0.2 µM
IC50 (MAO B [3]): 0.054 ± 0.001 µM

O=C1C(Cl)=C(NCCCC2CCCN3CCCCC23)C(=O)c2ccccc21 (centres unmarked) [VI]
IC50 (AChE): 0.011 µM
IC50 (BChE): 12 µM

O=C1C=C(NC[C@@H]2CCCN3CCCC[C@H]23)C(=O)c2ccccc21 [I]
IC50 (AChE): 5.8 µM

O=C1c2ccccc2C(=O)c2c(NCc3ccccc3)cccc21 [Compound 10, 1-(Benzylamino)-9,10-anthraquinone]
inhibition at 100 µM (Aβ40): ~60%
IC50 [1]: 8.7 ± 0.5 µM
inhibition at 10 µM [2]: 24%
IC50 (hMAO A): 1.1 ± 0.3 µM
inhibition at 10 µM (MAO B [3]): 34%

O=C1C(Cl)=C(NC(Cc2c[nH]c3ccccc23)C(=O)O)C(=O)c2ccccc21 (centres unmarked) [Compound 9]
IC50 (Aβ40): 14 ± 2 µM
IC50 [1]: 11 ± 1 µM
inhibition at 10 µM [2]: 17%
inhibition at 10 µM (hMAO A): 22%
inhibition at 10 µM (MAO B [3]): 52%

O=C1c2ccccc2C(=O)c2c(NCCCc3ccccc3)cccc21 [Compound 12, 1-[(3-Phenylpropryl)amino]-9,10-anthraquinone]
IC50 (Aβ40): 1.9 ± 0.3 µM
IC50 [1]: 7.84 ± 0.03 µM
IC50 [2]: 8.2 ± 0.4 µM
inhibition at 10 µM (hMAO A): 50%
IC50 (MAO B [3]): 0.24 ± 0.05 µM
inhibition of Aβ42 aggregation (activity profile) (Aβ42): best activity profile
cell viability vs control (%) (cerebellar granule cells): 77 ± 12%
CNS prediction [5]: CNS+
Papp at 16 h (in vitro): 220 ± 19 nm/s

CCn1cc(C(=O)O)c(=O)c2cc(F)c(N3CCNCC3)cc21 [Norfloxacin]
Papp at 16 h (in vitro): 3 nm/s

O=C1c2ccccc2C(=O)c2c(NCC[C@@H]3CCCN4CCCC[C@H]34)cccc21 [X]
IC50 (AChE): 0.84 µM

Clc1cccc(Cl)c1N=C1NCCN1 [Clonidine]
Papp at 16 h (in vitro): 56 nm/s

O=c1c(O)c(-c2ccc(O)c(O)c2)oc2cc(O)cc(O)c12 [quercetin, reference compound]
CNS prediction (PAMPA): CNS-
Papp at 16 h (in vitro): 1.4 ± 0.6 nm/s

CCn1cc(C(=O)O)c(=O)c2cc(F)c(N3CCNC(C)C3)c(F)c21 (centres unmarked) [Lomefloxacin]
Papp at 16 h (in vitro): 15 nm/s

CC(=O)[C@H]1CC[C@H]2[C@@H]3CCC4=CC(=O)CC[C@]4(C)[C@H]3CC[C@]12C [Progesterone]
Papp at 16 h (in vitro): 117 nm/s

O=C1C(Cl)=C(Nc2ccccc2)C(=O)c2ccccc21 [Compound 1]
inhibition at 100 µM (Aβ40): ~60%
inhibition at 10 µM ([1]; at 10 μM): 39%
inhibition at 10 µM [2]: 8%
inhibition at 10 µM (hMAO A): < 5%
inhibition at 10 µM (MAO B [3]): 22%

C#CCN(C)Cc1ccccc1 [pargyline, reference compound]
MAO B enzymatic activity in time course (MAO B [4]; 1 h preincubation with enzyme): completely inhibited
time until MAO B enzymatic activity came to saturation (MAO B [4]; no preincubation): about 1 h

O=C1C(Cl)=C(NCCn2nnc3ccccc32)C(=O)c2ccccc21 [Compound 7, 2-{[2-(1H-Benzotriazol-1-yl)ethy]amino}-3-chloro-1,4-naphthoquinone]
IC50 (Aβ40): 8.7 ± 0.4 µM
IC50 [1]: 1.7 ± 0.1 µM
inhibition at 10 µM [2]: 15%
inhibition at 10 µM (hMAO A): 21%
IC50 (MAO B [3]): 0.48 ± 0.08 µM
